What all share (format): in vivo, BALB/c mice
Data set [1] relates to anti-OVA-specific IgE antibody. In words: Allergy inducing activity test: anti-OVA-specific IgE antibody in serum of OVA-immunized mice (DS mouse IgE ELISA (OVA) kit). Conditions: for anti-OVA-specific IgE antibody production: after secondary immunization, dorsal-subcutaneous; for allergy inducing activity as compared to Addavax: conclusion from IgE after secondary immunization, compound in 5% αCD-added saline. The procedure: 8-Week-old female BALB/c mice were divided into groups (N=6), and each group was primarily immunized by dorsal-subcutaneous administration of (1) ovalbumin (OVA) (5 μg) dissolved in saline as an antigen (OVA single administration group), (2) OVA 5 μg and Addavax™ (mixed with saline at 1:1) dissolved in saline (Addavax™ administration group) as positive control adjuvant, (3) OVA 5 μg and SZ137 0.256 μmol dissolved or dispersed in 5% α-cyclodextrin (hereinafter to be simply referred to as αCD)-added saline (SZ137 administration group), (4) OVA (5 μg) and SZ138 (0.256 μmol) dissolved or dispersed in 5% αCD-added saline (SZ138 administration group), (5) OVA (5 μg) and SZ142 (0.256 μmol) dissolved or dispersed in 5% αCD-added saline (SZ142 administration group), (6) OVA (5 μg) and SZ144 (0.256 μmol) dissolved or dispersed in 5% αCD-added saline (SZ144 administration group), (7) OVA (5 μg) and SZ145 (0.256 μmol) dissolved or dispersed in 5% αCD-added saline (SZ145 administration group), (8) OVA (5 μg) and SZ146 (0.256 μmol) dissolved or dispersed in 5% αCD-added saline (SZ146 administration group), (9) OVA (5 μg) and SZ147 (0.256 μmol) dissolved or dispersed in 5% αCD-added saline (SZ147 administration group), (10) OVA (5 μg) and SZ148 (0.256 μmol) dissolved or dispersed in 5% αCD-added saline (SZ148 administration group), each per mouse. Two week later, the secondary immunization was carried out by dorsal-subcutaneous administration of solutions or dispersions similar to those of the above-mentioned (1)-(10) again. Two weeks from the secondary immunization, the whole blood was extracted under anesthesia, and the obtained serum sample was measured for anti-OVA-specific IgG1 subclass antibody, anti-OVA-specific IgG2a subclass antibody, and anti-OVA-specific IgE antibody.
The measurement method of the anti-OVA-specific IgE antibody in Experimental Example 1 and the following Experimental Examples 2-5, 8-10 is as follows.
DS mouse IgE ELISA (OVA) kit manufactured by DS Pharma Biomedical Co., Ltd. was used. The protocol is briefly shown below.
The serum sample and a standard reagent for drawing an analytical curve are diluted with a buffer and, after stirring, left standing at room temperature for 10 min. The sample and the standard solution are added to a plate bound with an IgE capture antibody in advance and, after stirring, the mixture is left standing at room temperature for 60 min. The mixture is washed three times with wash, HRP-labeled OVA is added, and the mixture is left standing at room temperature for 30 min. The mixture is washed three times with wash, a substrate solution is added, and the mixture is left standing in dark at room temperature for 30 min. A reaction quenching liquid is added, the mixture is stirred, and the absorbance (OD Value=450 nm) is immediately measured.
The standard used is one attached to the kit, the standard curve is drawn from the measured OD Value, and the concentration is calculated. […]
Background: In an ELISA, binding on a coated surface is turned into a signal by an enzyme label.

Data set [2] concerns anti-OVA-specific IgG1 and IgG2a subclass antibody / anti-OVA-specific IgE antibody. As to the kind of experiment: Effective Index: index for adjuvant enhancing antibody production and not inducing allergy (IgG1 or IgG2a / IgE, relative to Addavax = 1.0). The procedure: The serum samples obtained in Experimental Example 1 were evaluated for utilizability as an adjuvant to cause enhancement of antibody production by each compound and not induce allergy based on the following index (Effective Index). Whether each compound can be used as an adjuvant to cause enhancement of antibody production and not induce allergy was also evaluated in the same manner in the following Experimental Examples 2-10.
It is a problem that Addavax™ potentiates antigen-specific antibody production but induces allergy. Therefore, the index for adjuvant not inducing allergy (Effective Index) was defined as follows, and an index of each administration group in Experimental Examples 1-10 was calculated. That is, a value obtained by dividing mean of the concentrations of anti-OVA-specific IgG1 subclass antibody and anti-OVA-specific IgG2a subclass antibody of each group by mean of anti-OVA-specific IgE antibody concentration of each group was relatively compared with a value obtained by dividing mean of the concentrations of anti-OVA-specific IgG1 subclass antibody and anti-OVA-specific IgG2a subclass antibody of Addavax™ administration group by mean of anti-OVA-specific IgE antibody concentration of Addavax™ administration group as 1.0.

In data set [3] the test system is anti-OVA-specific IgE antibody. As to the kind of experiment: Allergy inducing activity test: anti-OVA-specific IgE antibody in serum of OVA-immunized mice (DS mouse IgE ELISA (OVA) kit). The settings on record: for anti-OVA-specific IgE antibody production: Experimental Example 4: after secondary immunization, compound 0.256 μmol dissolved in saline (no αCD).
The mark [4] stands for this setting: OVA 5 μg + compound 0.256 μmol in 5% αCD-added saline (Addavax mixed with saline at 1:1), compared to OVA single administration group.
Setting [5] is: OVA 5 μg + compound 0.256 μmol in 5% αCD-added saline, compared to Addavax administration group.
[6] abbreviates: after secondary immunization, compound in 5% αCD-added saline, IgG1/IgE and IgG2a/IgE production amounts relative to Addavax administration group (1.0).

With `CCCCCCCCCCCCCCCC(=O)N[C@@H](CCCNC(=N)N)C(=O)NCCCCCCCCCCCC.Cl` [SZ111, N-[(1S)-1-(dodecylcarbamoyl)-4-guanidino-butyl]hexadecanamide hydrochloride], the “anti-OVA-specific IgE antibody production” value in data set [1] (setting [4]) was “did not increase significantly”; in data set [1] (setting [5]) it was “lower”; in data set [3] (compared to Addavax administration group) it was “lower”; in data set [3] (compared to OVA single administration group), “significantly increased”. Besides, the “allergy inducing activity as compared to Addavax” value in data set [1] is recorded as “may have a lower allergy inducing activity”; in data set [3] (Experimental Example 4: conclusion from IgE after secondary immunization, compound dissolved in saline) it was “may have a lower allergy inducing activity”. For the same compound, the “Effective Index” value in data set [2] (Experimental Example 4: after secondary immunization, compound dissolved in saline, IgG1/IgE and IgG2a/IgE relative to Addavax administration group (1.0)) was > 1.0; in data set [2] (setting [6]), > 1.0.

On to `CCCCCCCCCCCCCCCCCCCCCC(=O)N[C@@H](CCCNC(=N)N)C(=O)NCCCCCCCCCCCC.Cl` [SZ138, N-[(1S)-1-(dodecylcarbamoyl)-4-guanidino-butyl]docosanamide hydrochloride], for which the “anti-OVA-specific IgE antibody production” value in data set [1] (setting [4]) is given as “an increase in the anti-OVA-specific IgE antibody production was not observed”. For the same compound, the “allergy inducing activity as compared to Addavax” value in data set [1] is given as “may have a lower allergy inducing activity”.

In the case of `CCCCCCCCCCCCCCCCCCCCCC(=O)N[C@@H](CC(C)C)C(=O)NCCCCCCCCCCC` [SZ142, N-[(1S)-3-methyl-1-(undecylcarbamoyl)butyl]docosanamide], the “anti-OVA-specific IgE antibody production” value in data set [1] (setting [4]) was “an increase in the anti-OVA-specific IgE antibody production was not observed”. Moreover, the “allergy inducing activity as compared to Addavax” value in data set [1] is on record as “may have a lower allergy inducing activity”.

Consider `CCCCCCCCCCCCCCCC(=O)N[C@@H](CC(C)C)C(=O)NCCCCCCCCCCCC` [SZ144, N-[(1S)-1-(dodecylcarbamoyl)-3-methyl-butyl]hexadecanamide], for which the “anti-OVA-specific IgE antibody production” value in data set [1] (setting [4]) is “an increase in the anti-OVA-specific IgE antibody production was not observed”. Also, the “allergy inducing activity as compared to Addavax” value in data set [1] is recorded as “may have a lower allergy inducing activity”.

Turning to `CCCCCCCCCCCCCCCCCCCCCC(=O)NCC(C)(C)C(=O)NCCCCCCCCCCCC` [SZ148, N-[3-(dodecylamino)-2,2-dimethyl-3-oxo-propyl]docosanamide], the “anti-OVA-specific IgE antibody production” value in data set [1] (setting [4]) was “an increase in the anti-OVA-specific IgE antibody production was not observed”. Also, in data set [1], the “allergy inducing activity as compared to Addavax” value was “may have a lower allergy inducing activity”.

For `CCCCCCCCCCCCCCCC(=O)N[C@@H](CCCCN)C(=O)NCCCCCCCCCCCC.Cl` [SZ153, N-[(1S)-5-amino-1-(dodecylcarbamoyl)pentyl]hexadecanamide hydrochloride], the “anti-OVA-specific IgE antibody production” value in data set [1] (setting [4]) is recorded as “an increase in the anti-OVA-specific IgE antibody production was not observed”. Further, the “allergy inducing activity as compared to Addavax” value in data set [1] is recorded as “may have a lower allergy inducing activity”. Moreover, the “Effective Index” value in data set [2] (setting [6]) is reported as > 1.0.

With `CCCCCCCC/C=C/CCCCCCCC(=O)N[C@@H](CCCNC(=N)N)C(=O)NCCCCCCCCCCCC.Cl` [SZ161, (E)-N-[(1S)-1-(dodecylcarbamoyl)-4-guanidino-butyl]octadeca-9-enamide hydrochloride], the “anti-OVA-specific IgE antibody production” value in data set [1] (setting [5]) is “lower”. Further, in data set [1], the “allergy inducing activity as compared to Addavax” value is recorded as “allergy inducing activity equivalent to or not more than that of Addavax™”.

`CCCCCCCCCCCCCCCCCCCCCC(=O)N[C@@H](CCCNC(=N)N)C(=O)NCCCCCCC.Cl` [SZ163, N-[(1S)-4-guanidino-1-(heptylcarbamoyl)butyl]docosanamide hydrochloride]: in data set [1] (setting [5]), the “anti-OVA-specific IgE antibody production” value is listed as “lower”. The “allergy inducing activity as compared to Addavax” value in data set [1] is on record as “allergy inducing activity equivalent to or not more than that of Addavax™”.

Turning to `CCCCCCCCCCCCCCCCCCCCCC(=O)N[C@@H](CCCN)C(=O)NCCCCCCCCCCCC.Cl` [SZ165, N-[(1S)-4-amino-1-(dodecylcarbamoyl)butyl]docosanamide hydrochloride], the “anti-OVA-specific IgE antibody production” value in data set [1] (setting [5]) is “lower”. Also, in data set [1], the “allergy inducing activity as compared to Addavax” value is reported as “allergy inducing activity equivalent to or not more than that of Addavax™”.

On to `CCCCCCCCCCCCCCCCCCCCCC(=O)N[C@@H](CCCCNC(=N)N)C(=O)NCCCCCCCCCCCC.Cl` [SZ166, N-[(1S)-1-(dodecylcarbamoyl)-5-guanidino-pentyl]docosanamide hydrochloride], for which, in data set [1] (setting [5]), the “anti-OVA-specific IgE antibody production” value is given as “lower”. In data set [1], the “allergy inducing activity as compared to Addavax” value is “allergy inducing activity equivalent to or not more than that of Addavax™”.

For `CCCCCCCCCCCCCCCCCCCCCC(=O)N[C@@H](CCCCNC(C)=O)C(=O)NCCCCCCCCCCCC` [SZ167, N-[(1S)-5-acetamide-1-(dodecylcarbamoyl)pentyl]docosanamide], the “anti-OVA-specific IgE antibody production” value in data set [1] (setting [5]) is “lower”. Also, in data set [1], the “allergy inducing activity as compared to Addavax” value is “allergy inducing activity equivalent to or not more than that of Addavax™”.

On to `CCCCCCCCCCCCCCCCNC(=O)N[C@@H](CCCNC(=N)N)C(=O)NCCCCCC.Cl` [SZ168, (2S)-5-guanidino-2-(hexadecylcarbamoylamino)-N-hexyl-pentanamide hydrochloride], for which the “anti-OVA-specific IgE antibody production” value in data set [1] (setting [5]) is “lower”. In data set [1], the “allergy inducing activity as compared to Addavax” value was “allergy inducing activity equivalent to or not more than that of Addavax™”.
